Legend:
B. subtilis 168 [1] = assay: fitness (endpoint OD595 vs no drug) (fraction); higher = more growth
Procedure, shortened: (§1)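 Bacterial growth was followed in 384-well plates seeded at OD595 0.01, with 30 µl per well, or 55 µl for S. pneumoniae, in TSB, LB Lennox or CY at 37 °C. OD595 was read every 30 min for 14 h, and each reading had the first reading subtracted as background. Fitness is the background-corrected optical density at entry into stationary phase divided by the robust mean of the no-drug control wells. This ratio is capped at 1.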

S. aureus DSM 20231 [2] = assay: as above
Procedure, shortened: as §1

S. aureus Newman [3] = assay: as above
Procedure, shortened: as §1

S. pneumoniae D39V [4] = assay: as above
Procedure, shortened: as §1

B. subtilis 168 [5] = assay: Bliss interaction score (quartile over a dose matrix) (fitness difference); higher = more antagonism (negative = synergy)
Procedure, shortened: (§2)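 Combination data were used to infer fitness under each single drug. Fitness is the OD595 at entry into stationary phase divided by the robust mean of the plate's no-drug wells, with a cap of 1. The Bliss score is the observed minus the expected product fitness, summarised by quartiles over technical, biological and donor/recipient replicates.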

S. aureus DSM 20231 [6] = assay: as above
Procedure, shortened: as §2

S. aureus Newman [7] = assay: as above
Procedure, shortened: as §2

S. pneumoniae D39V [8] = assay: as above
Procedure, shortened: as §2
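Throughout, for Bliss interaction score (quartile over a dose matrix): first quartile when negative (synergy) and third quartile when positive (antagonism).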

Cc1onc(-c2ccccc2)c1C(=O)N[C@@H]1C(=O)N2[C@@H]1SC(C)(C)[C@@H]2C(=O)O [Oxacillin] + CN[C@@H]1[C@H](O)[C@H](NC)[C@H]2O[C@@]3(O)C(=O)C[C@@H](C)O[C@H]3O[C@@H]2[C@H]1O [Spectinomycin]
fitness
Conditions	partner 2 µg/mL	partner 4 µg/mL	partner 8 µg/mL	partner 16 µg/mL
B. subtilis 168 [1], first compound 0.002 µg/mL	0.966	0.984	0.899	–
B. subtilis 168 [1], first compound 0.004 µg/mL	≥ 1	≥ 1	0.874	–
B. subtilis 168 [1], first compound 0.008 µg/mL	0.982	0.993	0.87	–
S. aureus DSM 20231 [2], first compound 0.0156 µg/mL	–	0.779	0.802	0.764
S. aureus DSM 20231 [2], first compound 0.0312 µg/mL	–	0.681	0.684	0.665
S. aureus DSM 20231 [2], first compound 0.0625 µg/mL	–	0.482	0.497	0.489
S. aureus Newman [3], first compound 0.0156 µg/mL	–	0.757	0.751	0.766
S. aureus Newman [3], first compound 0.0312 µg/mL	–	0.688	0.672	0.586
S. aureus Newman [3], first compound 0.0625 µg/mL	–	0.596	0.555	0.528
S. pneumoniae D39V [4], first compound 0.01 µg/mL	–	0.94	0.93	0.819
S. pneumoniae D39V [4], first compound 0.02 µg/mL	–	0.884	0.889	0.788
S. pneumoniae D39V [4], first compound 0.04 µg/mL	–	0.373	0.455	0.415

fitness, one replicate
Conditions	first compound 0.0156 µg/mL	first compound 0.0312 µg/mL	first compound 0.0625 µg/mL	first compound 0.075 µg/mL	first compound 0.15 µg/mL	first compound 0.3 µg/mL
B. subtilis 168 [1], partner 2 µg/mL	–	–	–	0.467	0.0332	0.0357
B. subtilis 168 [1], partner 4 µg/mL	–	–	–	0.394	0.034	0.0431
B. subtilis 168 [1], partner 8 µg/mL	–	–	–	0.0241	0.0342	0.0299
S. aureus DSM 20231 [2], partner 32 µg/mL	0.601	0.628	0.509	–	–	–
S. aureus DSM 20231 [2], partner 64 µg/mL	0.0615	0.0592	0.0362	–	–	–
S. aureus Newman [3], partner 32 µg/mL	0.483	0.272	0.135	–	–	–
S. aureus Newman [3], partner 64 µg/mL	0.0551	0.0867	0.0035	–	–	–

Conditions	Bliss interaction score
B. subtilis 168 [5]	0.0285
S. aureus DSM 20231 [6]	-0.0526
S. aureus Newman [7]	-0.0743
S. pneumoniae D39V [8]	0.0929

Cc1onc(-c2ccccc2)c1C(=O)N[C@@H]1C(=O)N2[C@@H]1SC(C)(C)[C@@H]2C(=O)O [Oxacillin] + COc1ccc(C[C@H](N)C(=O)N[C@H]2[C@@H](O)[C@H](n3cnc4c(N(C)C)ncnc43)O[C@@H]2CO)cc1 [Puromycin]
Conditions	fitness
B. subtilis 168 [1], first compound 0.002 µg/mL, partner 0.39 µg/mL	0.98
B. subtilis 168 [1], first compound 0.002 µg/mL, partner 0.78 µg/mL	0.966
B. subtilis 168 [1], first compound 0.002 µg/mL, partner 1.56 µg/mL	0.932
B. subtilis 168 [1], first compound 0.004 µg/mL, partner 0.39 µg/mL	0.974
B. subtilis 168 [1], first compound 0.004 µg/mL, partner 0.78 µg/mL	0.914
B. subtilis 168 [1], first compound 0.004 µg/mL, partner 1.56 µg/mL	0.9
B. subtilis 168 [1], first compound 0.008 µg/mL, partner 0.39 µg/mL	0.88
B. subtilis 168 [1], first compound 0.008 µg/mL, partner 0.78 µg/mL	0.879
B. subtilis 168 [1], first compound 0.008 µg/mL, partner 1.56 µg/mL	0.864
S. aureus DSM 20231 [2], first compound 0.0156 µg/mL, partner 0.39 µg/mL	0.84
S. aureus DSM 20231 [2], first compound 0.0156 µg/mL, partner 0.78 µg/mL	0.902
S. aureus DSM 20231 [2], first compound 0.0156 µg/mL, partner 1.56 µg/mL	0.91
S. aureus DSM 20231 [2], first compound 0.0312 µg/mL, partner 0.39 µg/mL	0.72
S. aureus DSM 20231 [2], first compound 0.0312 µg/mL, partner 0.78 µg/mL	0.737
S. aureus DSM 20231 [2], first compound 0.0312 µg/mL, partner 1.56 µg/mL	0.748
S. aureus DSM 20231 [2], first compound 0.0625 µg/mL, partner 0.39 µg/mL	0.481
S. aureus DSM 20231 [2], first compound 0.0625 µg/mL, partner 0.78 µg/mL	0.555
S. aureus DSM 20231 [2], first compound 0.0625 µg/mL, partner 1.56 µg/mL	0.546
S. aureus Newman [3], first compound 0.0156 µg/mL, partner 0.78 µg/mL	0.85
S. aureus Newman [3], first compound 0.0156 µg/mL, partner 1.56 µg/mL	0.806
S. aureus Newman [3], first compound 0.0312 µg/mL, partner 0.39 µg/mL	0.765
S. aureus Newman [3], first compound 0.0312 µg/mL, partner 0.78 µg/mL	0.788
S. pneumoniae D39V [4], first compound 0.01 µg/mL, partner 1 µg/mL	≥ 1
S. pneumoniae D39V [4], first compound 0.01 µg/mL, partner 2 µg/mL	0.969
S. pneumoniae D39V [4], first compound 0.01 µg/mL, partner 4 µg/mL	0.918
S. pneumoniae D39V [4], first compound 0.02 µg/mL, partner 1 µg/mL	0.984
S. pneumoniae D39V [4], first compound 0.02 µg/mL, partner 2 µg/mL	0.949
S. pneumoniae D39V [4], first compound 0.02 µg/mL, partner 4 µg/mL	0.863
S. pneumoniae D39V [4], first compound 0.04 µg/mL, partner 1 µg/mL	0.668
S. pneumoniae D39V [4], first compound 0.04 µg/mL, partner 2 µg/mL	0.644
S. pneumoniae D39V [4], first compound 0.04 µg/mL, partner 4 µg/mL	0.281

fitness, one replicate
Conditions	first compound 0.0156 µg/mL	first compound 0.0312 µg/mL	first compound 0.0625 µg/mL	first compound 0.075 µg/mL	first compound 0.15 µg/mL	first compound 0.3 µg/mL
B. subtilis 168 [1], partner 0.39 µg/mL	–	–	–	0.523	0.0695	0.0402
B. subtilis 168 [1], partner 0.78 µg/mL	–	–	–	0.645	0.0521	0.0336
B. subtilis 168 [1], partner 1.56 µg/mL	–	–	–	0.632	0.0547	0.0573
S. aureus DSM 20231 [2], partner 3.12 µg/mL	0.887	0.788	0.66	–	–	–
S. aureus DSM 20231 [2], partner 6.24 µg/mL	0.609	0.606	0.548	–	–	–

Conditions	Bliss interaction score
B. subtilis 168 [5]	0.0568
S. aureus DSM 20231 [6]	0.0572
S. aureus Newman [7]	0.0763
S. pneumoniae D39V [8]	0.167

Cc1onc(-c2ccccc2)c1C(=O)N[C@@H]1C(=O)N2[C@@H]1SC(C)(C)[C@@H]2C(=O)O [Oxacillin] + C[n+]1ccc(-c2cc[n+](C)cc2)cc1 [Paraquat]
Conditions	fitness
B. subtilis 168 [1], first compound 0.002 µg/mL, partner 1.25 µg/mL	0.964
B. subtilis 168 [1], first compound 0.002 µg/mL, partner 2.5 µg/mL	0.922
B. subtilis 168 [1], first compound 0.002 µg/mL, partner 5 µg/mL	0.725
B. subtilis 168 [1], first compound 0.004 µg/mL, partner 1.25 µg/mL	0.917
B. subtilis 168 [1], first compound 0.004 µg/mL, partner 2.5 µg/mL	0.864
B. subtilis 168 [1], first compound 0.004 µg/mL, partner 5 µg/mL	0.747
B. subtilis 168 [1], first compound 0.008 µg/mL, partner 1.25 µg/mL	0.861
B. subtilis 168 [1], first compound 0.008 µg/mL, partner 2.5 µg/mL	0.836
B. subtilis 168 [1], first compound 0.008 µg/mL, partner 5 µg/mL	0.665
S. aureus DSM 20231 [2], first compound 0.0156 µg/mL, partner 1.25 µg/mL	0.909
S. aureus DSM 20231 [2], first compound 0.0156 µg/mL, partner 2.5 µg/mL	0.892
S. aureus DSM 20231 [2], first compound 0.0156 µg/mL, partner 5 µg/mL	0.865
S. aureus DSM 20231 [2], first compound 0.0312 µg/mL, partner 1.25 µg/mL	0.704
S. aureus DSM 20231 [2], first compound 0.0312 µg/mL, partner 2.5 µg/mL	0.688
S. aureus DSM 20231 [2], first compound 0.0312 µg/mL, partner 5 µg/mL	0.63
S. aureus DSM 20231 [2], first compound 0.0625 µg/mL, partner 1.25 µg/mL	0.466
S. aureus DSM 20231 [2], first compound 0.0625 µg/mL, partner 2.5 µg/mL	0.599
S. aureus DSM 20231 [2], first compound 0.0625 µg/mL, partner 5 µg/mL	0.498
S. aureus Newman [3], first compound 0.0156 µg/mL, partner 1.25 µg/mL	0.792
S. aureus Newman [3], first compound 0.0156 µg/mL, partner 2.5 µg/mL	0.779
S. aureus Newman [3], first compound 0.0156 µg/mL, partner 5 µg/mL	0.795
S. aureus Newman [3], first compound 0.0312 µg/mL, partner 2.5 µg/mL	0.688
S. aureus Newman [3], first compound 0.0312 µg/mL, partner 5 µg/mL	0.687
S. aureus Newman [3], first compound 0.0625 µg/mL, partner 2.5 µg/mL	0.604
S. aureus Newman [3], first compound 0.0625 µg/mL, partner 5 µg/mL	0.587
S. pneumoniae D39V [4], first compound 0.01 µg/mL, partner 1.5 µg/mL	0.986
S. pneumoniae D39V [4], first compound 0.01 µg/mL, partner 3 µg/mL	0.986
S. pneumoniae D39V [4], first compound 0.01 µg/mL, partner 6 µg/mL	0.96
S. pneumoniae D39V [4], first compound 0.02 µg/mL, partner 1.5 µg/mL	0.939
S. pneumoniae D39V [4], first compound 0.02 µg/mL, partner 3 µg/mL	0.961
S. pneumoniae D39V [4], first compound 0.02 µg/mL, partner 6 µg/mL	0.928
S. pneumoniae D39V [4], first compound 0.04 µg/mL, partner 3 µg/mL	0.538
S. pneumoniae D39V [4], first compound 0.04 µg/mL, partner 6 µg/mL	0.483

fitness, B. subtilis 168 [1], one replicate
Conditions	first compound 0.075 µg/mL	first compound 0.15 µg/mL	first compound 0.3 µg/mL
partner 1.25 µg/mL	0.512	0.0497	0.0541
partner 2.5 µg/mL	0.326	0.054	0.0573
partner 5 µg/mL	0.0786	0.0366	0.0407

Conditions	Bliss interaction score
B. subtilis 168 [5]	-0.0872
S. aureus DSM 20231 [6]	-0.0577
S. aureus Newman [7]	-0.0522
S. pneumoniae D39V [8]	0.0963
